Results on six molecules are retold here after ChEMBL document CHEMBL1137009, “Inhibition of sphingosine-1-phosphate lyase for the treatment of autoimmune disorders” (J Med Chem, 2009).

Data set [1] is described as follows: Cmax in 129/SvEvBrd x C57BL/6 hybrid mouse at 100 mg/kg, po. In kind it is ADME, organism-based. Also noted: dose 100 mg/kg, route oral. Conditions: in vivo.
Data set [2] in a line: AUC in 129/SvEvBrd x C57BL/6 hybrid mouse at 100 mg/kg, po. In kind it is ADME, organism-based. More on the design: dose 100 mg/kg, route oral. Conditions: plasma.
Data set [3] has as its target T1, Sphingosine-1-phosphate lyase 1 (Mus musculus) (UniProt Q8R0X7).
T1 sequence (whole entry): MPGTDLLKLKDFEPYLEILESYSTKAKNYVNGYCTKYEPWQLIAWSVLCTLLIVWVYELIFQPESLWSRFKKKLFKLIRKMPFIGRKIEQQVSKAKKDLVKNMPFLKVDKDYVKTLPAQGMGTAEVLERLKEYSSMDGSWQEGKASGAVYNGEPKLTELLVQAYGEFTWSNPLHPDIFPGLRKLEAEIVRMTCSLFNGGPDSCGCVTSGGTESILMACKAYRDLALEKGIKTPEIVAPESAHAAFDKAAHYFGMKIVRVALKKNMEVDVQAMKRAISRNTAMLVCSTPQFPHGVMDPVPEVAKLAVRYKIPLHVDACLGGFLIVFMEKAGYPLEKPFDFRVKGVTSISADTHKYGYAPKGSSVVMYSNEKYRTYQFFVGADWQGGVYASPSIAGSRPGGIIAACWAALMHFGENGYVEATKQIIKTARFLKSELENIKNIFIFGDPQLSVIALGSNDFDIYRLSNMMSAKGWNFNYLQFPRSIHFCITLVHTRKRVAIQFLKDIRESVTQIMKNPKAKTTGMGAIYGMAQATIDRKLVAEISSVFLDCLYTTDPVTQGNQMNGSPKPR
As to the kind of experiment: Inhibition of sphingosine-1-phosphate lyase in mouse spleen assessed as production of [33P]phosphoethanolamine. In kind it is tissue-based.

The subject of data set [4] is HepG2. Nature of the data set: Increase in sphingosine-1-phosphate level in human HepG2 cells relative to control. In kind it is functional.
The subject of data set [5] is Mus musculus. Nature of the data set: Induction of lymphopenia in ip dosed 129/SvEvBrd x C57BL/6 hybrid mouse whole blood assessed as reduction in lymphocyte level by complete blood count analysis after 4 hrs. In kind it is functional, organism-based.
Data set [6] relates to Mus musculus. Nature of the data set: Reduction in sphingosine-1-phosphate lyase activity in mouse spleen at 100 mg/kg, po after 18 hrs by radioreceptor binding assay. Also noted: dose 100 mg/kg. The data set is classed as functional, organism-based.
Data set [7] concerns Mus musculus. Nature of the data set: Increase in sphingosine-1-phosphate level in mouse spleen at 100 mg/kg, po after 18 hrs by radioreceptor binding assay relative to control. The data set is classed as functional.
Data set [8] concerns Mus musculus. As to the kind of experiment: Induction of lymphopenia in 129/SvEvBrd x C57BL/6 hybrid mouse assessed as change in circulating lymphocyte level at 100 mg/kg, po administered as single dose after 18 hrs by complete blood count analysis relative to control. The data set is classed as functional.
Data set [9] is described as follows: (§1) AUC (0 to infinity) in 129/SvEvBrd x C57BL/6 hybrid mouse at 10 mg/kg, po. In kind it is ADME, organism-based, Plasma. Also noted: time infinity, dose 10 mg/kg, route oral. Conditions: 129/SvEvBrd x C57BL/6 hybrid, plasma.
Data set [10] in a line: Permeability across human Caco-2 cell membrane at 20 uM. The data set is classed as ADME, cell-based. The following applies: read-out: permeability. On the technique in general: Caco-2 cells form a polarised layer with tight junctions and transporters.
Data set [11] can be described thus: Clearance in 129/SvEvBrd x C57BL/6 hybrid mouse at 1 mg/kg, iv. The data set is classed as ADME, organism-based. Also noted: dose 1 mg/kg, route intravenous. Conditions: in vivo.
The nature of data set [12]: Cmax in 129/SvEvBrd x C57BL/6 hybrid mouse. In kind it is ADME, organism-based. The following applies: in vivo.
Data set [13] can be described thus: Tmax in 129/SvEvBrd x C57BL/6 hybrid mouse. In kind it is ADME, organism-based. The following applies: in vivo.
The nature of data set [14]: Half life in 129/SvEvBrd x C57BL/6 hybrid mouse. The following applies: in vivo. The data set is classed as ADME, organism-based.
A short description of data set [15]: (§2) Oral bioavailability in 129/SvEvBrd x C57BL/6 hybrid mouse at 1 mg/kg, iv and 10 mg/kg, po. In kind it is ADME, organism-based. Conditions: 129/SvEvBrd x C57BL/6 hybrid, in vivo.
Data set [16] is described as follows: Volume of distribution in 129/SvEvBrd x C57BL/6 hybrid mouse. In kind it is ADME, organism-based. Conditions: in vivo.
Data set [17] concerns Mus musculus. Nature of the data set: Induction of lymphopenia in 129/SvEvBrd x C57BL/6 hybrid mouse assessed as change in circulating lymphocyte level at 30 mg/kg, po administered as single dose after 18 hrs by complete blood count analysis relative to control. The data set is classed as functional.
Data set [18] has as its target T2, Sphingosine-1-phosphate lyase 1 (Mus musculus, UniProt Q8R0X7).
T2 sequence (Q8R0X7 whole entry): T1 sequence (whole entry)
As to the kind of experiment: Inhibition of sphingosine-1-phosphate lyase in mouse spleen by scintillation counting. The data set is classed as tissue-based.

Data set [19] can be described thus: Cmax in 129/SvEvBrd x C57BL/6 hybrid mouse at 10 mg/kg. In kind it is ADME, organism-based. More on the design: dose 10 mg/kg. Conditions: in vivo.
The nature of data set [20]: AUC in 129/SvEvBrd x C57BL/6 hybrid mouse at 10 mg/kg. In kind it is ADME, organism-based. More on the design: dose 10 mg/kg. The following applies: plasma.
Data set [21] is described as follows: Bioavailability in 129/SvEvBrd x C57BL/6 hybrid mouse at 10 mg/kg. The data set is classed as ADME, organism-based. The following applies: in vivo.
A short description of data set [22]: Protein binding in 129/SvEvBrd x C57BL/6 hybrid mouse plasma at 10 mg/kg. The data set is classed as ADME, organism-based. More on the design: dose 10 mg/kg. The following applies: read-out: PPB.
For data set [23], the system named is Mus musculus. As to the kind of experiment: Induction of lymphopenia in 129/SvEvBrd x C57BL/6 hybrid mouse whole blood assessed as reduction in lymphocyte level at 100 mg/kg, po after 4 hrs by complete blood count analysis. In kind it is functional, organism-based. More on the design: dose 100 mg/kg.
Data set [24] has as its system Mus musculus. As to the kind of experiment: Induction of lymphopenia in 129/SvEvBrd x C57BL/6 hybrid mouse whole blood assessed as reduction in lymphocyte level at 100 mg/kg, po after 18 hrs by complete blood count analysis. Also noted: dose 100 mg/kg. The data set is classed as functional, organism-based.
Data set [25] deals with Mus musculus. As to the kind of experiment: Toxicity in 129/SvEvBrd x C57BL/6 hybrid mouse at 100 mg/kg, po. The data set is classed as organism-based. More on the design: dose 100 mg/kg, route oral. Conditions: in vivo.
Data set [26] concerns Mus musculus. Described as §1. The data set is classed as ADME, organism-based, Plasma. More on the design: time infinity, dose 10 mg/kg, route oral. Conditions: in vivo.
For data set [27], the system named is Mus musculus. The data set is described as §2. In kind it is ADME, organism-based. Conditions: in vivo.
The subject of data set [28] is Mus musculus. Nature of the data set: Induction of lymphopenia in 129/SvEvBrd x C57BL/6 hybrid mouse assessed as reduction in lymphocyte level from peripheral circulation at 10 mg/kg by complete blood count analysis. The data set is classed as functional. Also noted: scale not given: the % may be the effect or the level left.

Activity calls are given as the source filed them. The rule behind the calls is not given here.

For orientation: Cmax means the highest concentration seen after dosing. For orientation: AUC means concentration integrated over time. For the molecule `CCCCCCCCCCCC/C=C/C[C@@H](O)[C@H](CO)NCc1c(CO)cnc(C)c1O`, the Cmax in data set [1] is less than 1 µM. This molecule came in with an AUC in data set [2] of less than 1 µM·h. The outcome in data set [3] was inactive. The Activity in data set [4] is 275%; in data set [5] it was “Non-toxic”.
Broadly, the AUC(0-inf) is total exposure, with the tail of the curve extrapolated. One may read the clearance as the rate of elimination divided by the concentration. One may read the Tmax as the time from dosing to the highest level. In general, half-life refers to how long it takes for the measured level to halve. For orientation: bioavailability means the share of a dose that reaches the circulation, judged against a reference dose that is usually intravenous. The term Vd denotes the apparent volume that relates the amount in the body to the concentration in plasma or blood. On to `CC(=O)c1nc([C@@H](O)[C@H](O)[C@H](O)CO)c[nH]1`, for which the outcome in data set [6] was Active. Besides, the “fold change (FC)” value in [7] came out at 22. Moreover, the Activity in data set [8] is -41%; in data set [17], -25%. The AUC(0-inf) in data set [9] worked out at 35.8 µM·h. The Papp at 20 µM in [10] amounted to 110 nm/s. This molecule had a clearance in data set [11] of 0.174 L/h/kg. Also, the highest level in data set [12] (Cmax) was 24.9 µM. Moreover, the Tmax in [13] was determined as 0.5 h. Moreover, in [14], the half-life is 4.5 h. In [15], this molecule showed a bioavailability of 14%. The distribution volume (Vd) in data set [16] came out at 0.067 L/kg.
As a reminder, the IC50 is the point on the concentration scale where inhibition reaches its midpoint. Regarding `Nc1nc(N2CCCCC2)nc2c1c(=O)c(C(=O)NCc1ccc(-n3ccnc3)cc1)cn2CC1CCCO1` (stereo not given), half-maximal inhibition in data set [18] (IC50) was put at 2.1 µM. The maximum concentration (Cmax) in [19] came out at 451 µM. In [20], this molecule came in with an AUC of 1870 µM·h. Further, the bioavailability in data set [21] worked out at 100%. In [22], the fraction unbound is less than 0.01. The Activity result in data set [23] and in [24] was “Non-toxic” throughout.
Take `CC(F)(F)c1nc([C@@H](O)[C@H](O)[C@H](O)CO)c[nH]1`: the area under the curve AUC(0-inf) in data set [9] turned out to be 4.7 µM·h. Besides, the Papp at 20 µM in data set [10] was determined as 111 nm/s. The half-life in data set [14] was 1 h. The results for the Activity in data set [17] and in [25] were -58% and “Toxic”, respectively.
`CN(C)C(=O)c1nc([C@@H](O)[C@H](O)[C@H](O)CO)c[nH]1` gave an AUC in data set [26] of 6.7 µM·h. The Papp at 20 µM in [10] turned out to be 99 nm/s. The half-life in data set [14] is 4 h. In addition, in data set [27], the F is recorded as 5%. Moreover, the Activity in data set [17] was -11%.
In the case of `CCCCCCCCc1ccc(CCC(N)(CO)CO)cc1` [FINGOLIMOD], in [28], the Activity worked out at 90%.
